In patent publication US10023544B2, “Heterocyclic compound” (Takeda Pharmaceutical Company Limited, priority 2014, dated 2018):
Counter-ions that a name gives are not always drawn.

Molecular target: T1, Human recombinant enteropeptidase (Homo sapiens, UniProt P98073)
T1 construct: purchased ITSI-Biosciences, LLC #REN-260
Experiment: Human enteropeptidase inhibitory activity
Type: biochemical
Conditions: 3.3 uM test compound; fluorescence intensity 2 hours after start of reaction; read-out: Inhibition rate at 3.3 uM (%)
Description: Human recombinant enteropeptidase (#REN-260, ITSI-Biosciences, LLC) was diluted with an assay buffer (50 mM Tricine (pH 8.0), 0.01 (w/v) % Tween 20, 10 mM CaCl2) to prepare a 24 mU/mL enzyme solution. Subsequently, 5FAM-Abu-Gly-Asp-Asp-Asp-Lys-Ile-Val-Gly-Gly-Lys(CPQ2)-Lys-Lys-NH2 (purity: 97.2%, CPC Scientific, Inc.) produced according to a synthesis method known per se was diluted with an assay buffer to prepare a 2.1 uM (“u” represents “micro”) substrate solution. Each test compound was dissolved in DMSO to prepare a 1 mM solution, which was then diluted 100-fold with an assay buffer to prepare a compound solution. The compound solution (5 uL/well) and the substrate solution (5 uL/well) were added to a 384-well black plate (#784076, Greiner Bio-One) and mixed. Then, the enzyme solution (5 uL/well) was added to the plate and mixed to start reaction. The fluorescence intensity was measured at an excitation wavelength of 485 nm and a fluorescence wavelength of 535 nm using a fluorescence plate reader EnVision (PerkinElmer Inc.). Also, the same reaction as above was performed except that the test compound was not added (test compound non-supplemented group). In addition, the same reaction as above was performed except that neither the test compound nor the enzyme was added (control group). The inhibition rate was calculated from the fluorescence intensity 2 hours after the start of the reaction according to the following equation: Inhibition rate (%)=(1−(Fluorescence intensity of the test compound supplemented group−Fluorescence intensity of the control group)/(Fluorescence intensity of the test compound non-supplemented group−Fluorescence intensity of the control group))×100

T1 sequence (P98073 whole entry): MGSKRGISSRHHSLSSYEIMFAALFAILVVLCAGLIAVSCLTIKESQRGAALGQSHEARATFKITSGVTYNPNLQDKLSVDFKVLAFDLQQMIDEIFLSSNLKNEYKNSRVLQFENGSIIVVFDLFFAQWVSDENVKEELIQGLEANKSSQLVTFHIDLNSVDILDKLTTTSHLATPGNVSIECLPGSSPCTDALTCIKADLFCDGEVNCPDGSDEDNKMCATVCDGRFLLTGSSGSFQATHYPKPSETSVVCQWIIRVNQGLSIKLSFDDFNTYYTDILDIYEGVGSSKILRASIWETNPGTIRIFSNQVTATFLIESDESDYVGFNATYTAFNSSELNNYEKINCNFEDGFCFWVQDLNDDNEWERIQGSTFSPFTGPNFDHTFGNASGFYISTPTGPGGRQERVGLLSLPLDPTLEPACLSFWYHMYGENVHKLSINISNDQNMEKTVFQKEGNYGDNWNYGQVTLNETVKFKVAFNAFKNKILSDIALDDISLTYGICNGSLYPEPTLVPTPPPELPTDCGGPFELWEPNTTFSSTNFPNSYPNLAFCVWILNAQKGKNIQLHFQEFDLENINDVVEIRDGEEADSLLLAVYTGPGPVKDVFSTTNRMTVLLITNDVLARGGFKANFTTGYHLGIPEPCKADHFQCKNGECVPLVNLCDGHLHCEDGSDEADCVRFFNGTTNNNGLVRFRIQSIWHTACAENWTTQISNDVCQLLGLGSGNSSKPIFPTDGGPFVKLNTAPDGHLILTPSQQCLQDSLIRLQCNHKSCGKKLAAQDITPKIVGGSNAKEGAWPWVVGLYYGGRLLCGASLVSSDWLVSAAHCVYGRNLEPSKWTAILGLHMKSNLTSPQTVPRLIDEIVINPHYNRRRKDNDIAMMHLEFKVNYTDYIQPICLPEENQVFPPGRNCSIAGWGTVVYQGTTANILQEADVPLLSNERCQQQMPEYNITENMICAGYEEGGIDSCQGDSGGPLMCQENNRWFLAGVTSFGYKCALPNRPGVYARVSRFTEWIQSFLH

Row | inhibition at 3.3 µM | SMILES
1 | 100% | N=C(N)Nc1ccc(C(=O)Oc2cc(CCC(=O)O)cc(C3=NOC(CC(=O)O)(C(=O)O)C3)c2)cc1 (stereo not shown) [Example 14, 3-(3-((4-Carbamimidamidobenzoyl)oxy)-5-(2-carboxyethyl)phenyl)-5-(carboxymethyl)-4,5-dihydro-1,2-oxazole-5-carboxylic acid trifluoroacetate]
2 | 101% | N=C(N)Nc1ccc(C(=O)Oc2cccc(C3=NOC(CCC(=O)O)(CCC(=O)O)C3)c2)cc1 [Example 4, 3,3′-(3-(3-((4-carba-mimidamidobenzoyl)oxy)phenyl)-4,5-dihydro-1,2-oxazole-5,5-diyl)dipropanoic acid]
3 | 100% | N=C(N)Nc1ccc(C(=O)Oc2ccc(CCC(=O)N[C@@H](CC(=O)O)C(=O)O)c(C3=NOC(CC(=O)O)(CC(=O)O)C3)c2)cc1 [Example 20, N-(3-(2-(5,5-bis(carboxymethyl)-4,5-dihydro-1,2-oxazol-3-yl)-4-((4-carbamimidamidobenzoyl)oxy)phenyl)propanoyl)-L-aspartic acid]
4 | 101% | N=C(N)Nc1ccc(C(=O)Oc2ccc(CCC(=O)O)c(C3=NOC(CC(=O)O)(C(=O)O)C3)c2)cc1 (stereo not shown) [Example 15, 3-(5-((4-carbamimidamidobenzoyl)oxy)-2-(2-carboxyethyl)phenyl)-5-(carboxymethyl)-4,5-dihydro-1,2-oxazole-5-carboxylic acid]
5 | 87% | Cc1ccc(C2=NOC(CC(=O)O)(C(=O)O)C2)cc1OC(=O)c1ccc(NC(=N)N)cc1 (stereo not shown) [Example 17, 3-(3-((4-carbamimidamidobenzoyl)oxy)-4-methylphenyl)-5-(carboxymethyl)-4,5-dihydro-1,2-oxazole-5-carboxylic acid]
6 | 100% | Cc1c(OC(=O)c2ccc(NC(=N)N)cc2)cccc1C1=NOC(CC(=O)O)(C(=O)O)C1 (stereo not shown) [Example 16, 3-(3-((4-carbamimidamidobenzoyl)oxy)-2-methylphenyl)-5-(carboxymethyl)-4,5-dihydro-1,2-oxazole-5-carboxylic acid]
7 | 101% | N=C(N)Nc1ccc(C(=O)Oc2ccc(C3CCN(CCC(=O)O)CC3)c(C3=NOC(CC(=O)O)(CC(=O)O)C3)c2)cc1 [Example 22, 3-(4-(2-(5,5-Bis(carboxymethyl)-4,5-dihydro-1,2-oxazol-3-yl)-4-((4-carbamimidamidobenzoyl)oxy)phenyl)piperidin-1-yl)propanoic acid ditrifluoroacetate]
8 | 101% | N=C(N)Nc1ccc(C(=O)Oc2cc(CCC(=O)N[C@@H](CC(=O)O)C(=O)O)cc(C3=NOC(CC(=O)O)(C(=O)O)C3)c2)cc1 (stereo partly drawn) [Example 19, N-(3-(3-((4-carbamimidamidobenzoyl)oxy)-5-(5-carboxy-5-(carboxymethyl)-4,5-dihydro-1,2-oxazol-3-yl)phenyl)propanoyl)-L-aspartic acid]
9 | 100% | CN(CC(=O)O)C(=O)CCc1ccc(OC(=O)c2ccc(NC(=N)N)cc2)cc1C1=NOC(CC(=O)O)(CC(=O)O)C1 [Example 31, N-(3-(2-(5,5-bis(carboxymethyl)-4,5-dihydro-1,2-oxazol-3-yl)-4-((4-carbamimidamidobenzoyl)oxy)phenyl)propanoyl)-N-methylglycine]
10 | 100% | N=C(N)Nc1ccc(C(=O)Oc2ccc(CCC(=O)N[C@@H](CCC(N)=O)C(=O)O)c(C3=NOC(CC(=O)O)(CC(=O)O)C3)c2)cc1 [Example 29, N^2-(3-(2-(5,5-bis(carboxymethyl)-4,5-dihydro-1,2-oxazol-3-yl)-4-((4-carbamimidamidobenzoyl)oxy)phenyl)propanoyl)-L-glutamine]
11 | 100% | N=C(N)Nc1ccc(C(=O)Oc2ccc(CCC(=O)N3CCOCC3)c(C3=NOC(CC(=O)O)(CC(=O)O)C3)c2)cc1 [Example 26, 2,2′-(3-(5-((4-carbamimidamidobenzoyl)oxy)-2-(3-(morpholin-4-yl)-3-oxopropyl)phenyl)-4,5-dihydro-1,2-oxazole-5,5-diyl) diacetic acid]
12 | 100% | N=C(N)Nc1ccc(C(=O)Oc2ccc(CCC(=O)N3CCC(C(=O)O)CC3)c(C3=NOC(CC(=O)O)(CC(=O)O)C3)c2)cc1 [Example 33, 1-(3-(2-(5,5-Bis(carboxymethyl)-4,5-dihydro-1,2-oxazol-3-yl)-4-((4-carbamimidamidobenzoyl)oxy)phenyl)propanoyl)piperidine-4-carboxylic acid]
13 | 100% | N=C(N)Nc1ccc(C(=O)Oc2ccc(CCC(=O)O)c(C3=NOC(CC(=O)O)(CC(=O)O)C3)c2)cc1 [Example 24, 3-(2-(5,5-bis(carboxymethyl)-4,5-dihydro-1,2-oxazol-3-yl)-4-((4-carbamimidamidobenzoyl)oxy)phenyl)propanoic acid]
14 | 100% | Cc1cc(OC(=O)c2ccc(NC(=N)N)cc2)cc(C2=NOC(CC(=O)O)(C(=O)O)C2)c1 (stereo not shown) [Example 11, 3-(3-((4-Carbamimidamidobenzoyl)oxy)-5-methylphenyl)-5-(carboxymethyl)-4,5-dihydro-1,2-oxazole-5-carboxylic acid trifluoroacetate]
15 | 101% | CC(C)(C)C1CCC(c2cc(OC(=O)c3ccc(NC(=N)N)cc3)cc(C3=NOC(CC(=O)O)(C(=O)O)C3)c2)CC1 (stereo not drawn) [Example 12, 3-(3-(4-tert-butylcyclohexyl)-5-((4-carbamimidamidobenzoyl)oxy)phenyl)-5-(carboxymethyl)-4,5-dihydro-1,2-oxazole-5-carboxylic acid (trans or cis form)]
16 | 100% | CS(=O)(=O)CCNC(=O)CCc1ccc(OC(=O)c2ccc(NC(=N)N)cc2)cc1C1=NOC(CC(=O)O)(CC(=O)O)C1 [Example 27, 2,2′-(3-(5-((4-carbamimidamidobenzoyl)oxy)-2-(3-((2-(methylsulfonyl)ethyl)amino)-3-oxopropyl)phenyl)-4,5-dihydro-1,2-oxazole-5,5-diyl)diacetic acid]
17 | 100% | N=C(N)Nc1ccc(C(=O)Oc2ccc(CCC(=O)N3CCS(=O)(=O)CC3)c(C3=NOC(CC(=O)O)(CC(=O)O)C3)c2)cc1 [Example 25, 2,2′-(3-(5-((4-Carbamimidamidobenzoyl)oxy)-2-(3-(1,1-dioxidothiomorpholin-4-yl)-3-oxopropyl)phenyl)-4,5-dihydro-1,2-oxazole-5,5-diyl)diacetic acid]
18 | 100% | N=C(N)Nc1ccc(C(=O)Oc2ccc(CCC(=O)N[C@@H](CC(=O)O)C(=O)O)c(C3=NOC(CC(=O)O)(C(=O)O)C3)c2)cc1 (stereo partly drawn) [Example 18, N-(3-(4-((4-Carbamimidamidobenzoyl)oxy)-2-(5-carboxy-5-(carboxymethyl)-4,5-dihydro-1,2-oxazol-3-yl)phenyl)propanoyl)-L-aspartic acid trifluoroacetate]
19 | 100% | N=C(N)Nc1ccc(C(=O)Oc2cccc(C3=NOC(CC(=O)O)(CC(=O)O)C3)c2)cc1 [Example 6, 2,2′-(3-(3-((4-Carbamimidamidobenzoyl)oxy)phenyl)-4,5-dihydro-1,2-oxazole-5,5-diyl)diacetic acid]
20 | 100% | N=C(N)Nc1ccc(C(=O)Oc2cc(CCC(=O)N[C@@H](CC(=O)O)C(=O)O)cc(C3=NOC(CC(=O)O)(CC(=O)O)C3)c2)cc1 [Example 23, N-(3-(3-(5,5-bis(carboxymethyl)-4,5-dihydro-1,2-oxazol-3-yl)-5-((4-carbamimidamidobenzoyl)oxy)phenyl)propanoyl)-L-aspartic acid]
21 | 101% | CC(C)(C)C1CCC(c2ccc(OC(=O)c3ccc(NC(=N)N)cc3)cc2C2=NOC(CC(=O)O)(C(=O)O)C2)CC1 (stereo not shown) [Example 10, 3-(2-(4-tert-butylcyclohexyl)-5-((4-carbamimidamidobenzoyl)oxy)phenyl)-5-(carboxymethyl)-4,5-dihydro-1,2-oxazole-5-carboxylic acid]
22 | 101% | N=C(N)Nc1ccc(C(=O)Oc2ccc(CCC(=O)NCCS(=O)(=O)O)c(C3=NOC(CC(=O)O)(CC(=O)O)C3)c2)cc1 [Example 34, 2,2′-(3-(5-((4-Carbamimidamidobenzoyl)oxy)-2-(3-oxo-3-((2-sulfoethyl)amino)propyl)phenyl)-4,5-dihydro-1,2-oxazole-5,5-diyl)diacetic acid]
23 | 100% | N=C(N)Nc1ccc(C(=O)Oc2ccc(CCC(=O)N[C@@H](CC(N)=O)C(=O)O)c(C3=NOC(CC(=O)O)(CC(=O)O)C3)c2)cc1 [Example 28, N^2-(3-(2-(5,5-bis(carboxymethyl)-4,5-dihydro-1,2-oxazol-3-yl)-4-((4-carbamimidamidobenzoyl)oxy)phenyl)propanoyl)-L-asparagine]
24 | 100% | N=C(N)Nc1ccc(C(=O)Oc2ccc(CCC(=O)NCC(=O)O)c(C3=NOC(CC(=O)O)(CC(=O)O)C3)c2)cc1 [Example 30, N-(3-(2-(5,5-bis(carboxymethyl)-4,5-dihydro-1,2-oxazol-3-yl)-4-((4-carbamimidamidobenzoyl)oxy)phenyl)propanoyl)glycine]
25 | 101% | N=C(N)Nc1ccc(C(=O)Oc2ccc(C3=NOC(CC(=O)O)(C(=O)O)C3)cc2)cc1 (stereo not shown) [Example 2, 3-(4-((4-carba-mimidamidobenzoyl)oxy)phenyl)-5-(carboxymethyl)-4,5-dihydro-1,2-oxazole-5-carboxylic acid]
